The values that follow come from patent US20210046085A1, “TREATMENT OF ADVANCED ESTROGEN RECEPTOR POSITIVE BREAST CANCER” (Pantarhei Oncology B.V., priority 2018, published 2021).

One series deals with T1, SHBG (Homo sapiens, UniProt P04278).
T1 sequence (P04278 30-402): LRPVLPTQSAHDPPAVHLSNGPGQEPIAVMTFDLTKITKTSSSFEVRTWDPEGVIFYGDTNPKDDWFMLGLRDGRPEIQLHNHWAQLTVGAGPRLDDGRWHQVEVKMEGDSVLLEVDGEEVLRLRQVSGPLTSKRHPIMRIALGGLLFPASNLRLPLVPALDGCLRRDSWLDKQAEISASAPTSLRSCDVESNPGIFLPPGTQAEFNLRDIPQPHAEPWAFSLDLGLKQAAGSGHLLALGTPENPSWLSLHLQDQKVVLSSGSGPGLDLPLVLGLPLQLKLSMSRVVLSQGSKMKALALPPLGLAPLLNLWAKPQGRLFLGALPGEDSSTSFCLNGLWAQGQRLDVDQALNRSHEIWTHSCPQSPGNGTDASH
Conditions: cited from earlier work.

A further series has as its system T-47D cells. Conditions: and higher (288 pg/ml); cited from earlier work.
The subject of series [1] is estrogen response element (ERE). Particulars: breast cancer cells; cited from earlier work.
For series [2], the system named is long term estrogen deprived MCF7 breast cancer cells (LTED cells). The experiment in a line: Cell count in long term estrogen deprived MCF7 breast cancer cells (LTED cells). It is filed as cell-based, human. Particulars: for Cell number per well: cell count on Day 7. The protocol:
LTED cells were plated in 6-well plates at a density of 30,000 cells per well. The cells were maintained in phenol red free IMEM with 5% charcoal stripped FBS (DCC-FBS). On Day 3, the medium was replaced with fresh phenol red free IMEM with 5% DCC-FBS. […] The final vehicle concentration was 0.1% ethanol for all experiments. Each treatment was done in duplicate.
On Day 5, the medium was changed and on Day 7 plates were subjected to a cell count analysis.

The conditions of series [3]: cited from earlier work.
In another series the test system is MCF-7 cells. Conditions: and higher (288 pg/ml); cited from earlier work.
For series [4] the following is noted: cited from earlier work. This is another data set of the same source.
The nature of series [5]: Single dose pharmacokinetics study of oral estriol in postmenopausal women. It counts as in vivo, human. Particulars: for concentration at 24 h / concentration at 48 h / concentration at 72 h: female, human, plasma, read-out: Average plasma level; for Average plasma level: 0-24 hours. How it is done: A single dose pharmacokinetics study was conducted to evaluate the pharmacokinetics of different oral dosages of estriol in postmenopausal women. In total 16 women were assigned to two different groups (Cohort A and Cohort B). Each Cohort received two estriol treatments. […] A wash-out period of 7 days was taken into account between the treatments.

For series [6] the following is noted: single oral dose of 12 mg, postmenopausal women, cited from earlier work.

Like-named read-outs stand apart in the source and are kept apart here. Where only a bound is given, the exact number is not on record here.

For the compound `C[C@]12CC[C@@H]3c4ccc(O)cc4CC[C@H]3[C@@H]1CC[C@@H]2O` [estradiol, 17beta-estradiol], the “Binding to SHBG” value at SHBG (Hammond GL et al., Climacteric 2008) is listed as “about 40%”.
Consider `C[C@]12CC[C@@H]3c4ccc(O)cc4CC[C@H]3[C@@H]1C[C@@H](O)[C@@H]2O` [estriol, estra-1,3,5(10)-triene-3,16α,17β-triol], for which the “Concentration exerting a mitogenic effect” value in the series with T-47D cells and with MCF-7 cells was ≥ 10^−9 M in each case. Besides, the “Concentration at which effects on ERE activation were visible” value in series [1] is 10^−10 M. Besides, the “Binding to SHBG” value at SHBG was “does not bind to SHBG”. Further, the “Growth of LTED cells (result in words)” value in series [2] is on record as “able to inhibit the growth of LTED cells”. In addition, the “Cell number per well” value in [2] (10^−5 M estriol) was 0.11 ×10^6; in series [2] (10^−6 M estriol), 0.18 ×10^6; in series [2] (10^−7 M estriol), 0.21 ×10^6; in series [2] (10^−8 M estriol), 0.22 ×10^6; in series [2] (10^−9 M estriol) it was 0.26 ×10^6; in series [2] (10^−10 M estriol), 0.56 ×10^6. Moreover, the “Cell number per well” value in series [2] (10^−11 M estriol) is given as 0.92 ×10^6; in series [2] (10^−12 M estriol) it was 1.17 ×10^6. In addition, the “Concentration at which peak inhibition is observed” value in series [2] (no significant further inhibition at higher concentrations) is recorded as 10^−9 M. The “Half-life after oral administration” value in [3] (Maturitas (1990), 12:171-197) is 9 to 10 h; in series [3] (Summary of Product Characteristics of Synapause), 1.5 h. For the same compound, the “Conjugated in the intestine to glucuronides” value in series [3] (oral administration) was 80-90%. For the same compound, the “Conjugated in the intestine to sulfates” value in series [3] (oral administration) is listed as 10-20%. In addition, in series [3] (oral administration), the “Fraction that reaches the circulation” value is listed as 1-2%. Moreover, the figures for the Peak levels in series [4] (oral administration of 6 mg estriol) and in series [4] (oral administration of 12 mg) were 80 to 220 pg/mL and 150 to 490 pg/mL, respectively. The concentration at 24 h in series [5] (oral dose 5 mg) turned out to be 0.017 ± 0.011 ng/mL; in series [5] (oral dose 10 mg) it was 0.047 ± 0.067 ng/mL; in series [5] (oral dose 20 mg), 0.064 ± 0.041 ng/mL; in [5] (oral dose 40 mg), 0.121 ± 0.113 ng/mL. The concentration at 48 h in [5] (oral dose 5 mg) came out at 0.011 ± 0.015 ng/mL; in series [5] (oral dose 10 mg), 0.012 ± 0.015 ng/mL; in series [5] (oral dose 20 mg) it was 0.03 ± 0.01 ng/mL; in series [5] (oral dose 40 mg), 0.052 ± 0.014 ng/mL. Moreover, the concentration at 72 h in [5] (oral dose 5 mg) came to 0.002 ± 0.006 ng/mL; in [5] (oral dose 10 mg), 0.001 ± 0.002 ng/mL; in series [5] (oral dose 20 mg) it was 0.008 ± 0.012 ng/mL; in series [5] (oral dose 40 mg) it was 0.013 ± 0.008 ng/mL. In series [5] (high oral dose levels, postmenopausal women), the Tolerability entry is recorded as “well tolerated”. Moreover, the “Plasma levels of estriol after 72 hours” value in series [5] (oral administration of 20 mg or 40 mg estriol) is “still significant after 72 hours”. For the same compound, the “Plasma levels of estriol over 24 hours” value in series [5] (oral administration of estriol 5-40 mg) is recorded as “remained fairly constant over 24 hours”. The Average plasma level in series [5] (oral dose 5 mg) is 28 pg/mL; in [5] (oral dose 10 mg), 39 pg/mL; in [5] (oral dose 20 mg) it was 103 pg/mL; in series [5] (oral dose 40 mg), 110 pg/mL. In [5] (single oral dose 5-40 mg), the “Plasma levels of estriol late after dosing” value was “still measurable up to 72 hrs post dosing”. The “Time of second increase after dosing (enterohepatic circulation)” value in series [5] (single oral dose 5-40 mg) was 4 to 6 h. In addition, in [5] (single oral dose 5-40 mg, approximately), the “Time of peak levels after dosing” value was 1 to 2 h. The “Initial increase in estriol levels” value in series [6] (conversion of pmol/L value) was 144 to 288 pg/mL; in series [6] (lasted about four hours) it was 500 to 1000 pmol/L.
